Assay results as given in PMC2362731, “Phase I study of Carzelesin (U-80,244) given (4-weekly) by intravenous bolus schedule” (British Journal of Cancer, 1999).

How the values were obtained:
rabbits = test system: rabbits; set-up: method as in McGovren et al, 1984; settings: ref McGovren et al, 1984; cited from earlier work
mice = test system: mice; set-up: method as in McGovren et al, 1984; settings: ref McGovren et al, 1984; cited from earlier work
patients = test system: patients; set-up: method as in Sessa et al, 1994; settings: day 1 q 4 weeks schedule; ref Sessa et al, 1994; cited from earlier work
[1] = Plasma pharmacokinetics of Carzelesin and metabolites by HPLC, first course; type: in vivo, human; settings: for mean concentration of metabolite: highest dose level 300 of Carzelesin
Procedure: Carzelesin is a cyclopropylpyrroloindole analogue which acts as a DNA-sequence-specific alkylating agent. In this phase I study, Carzelesin was given as a 4-weekly 10 min IV infusion to 51 patients with advanced solid tumours. Patients received a median of two courses (range 1–5) at one of nine dose levels: 24, 48, 96, 130, 150, 170, 210, 250 and 300 μg m^−2. According to NCI-CTC criteria, non-haematological toxicities (grade 1/2) included fever, nausea and vomiting, mucositis and anorexia, none of which was clearly dose related. The dose-limiting toxicity was haematological and consisted mainly of neutropenia and to a lesser extent thrombocytopenia. From the dose level 150 μg m^−2, the haematological toxicity (particularly thrombocytopenia) was delayed in onset, prolonged and cumulative in some patients. In several courses, double WBC nadirs occurred. The maximum tolerated dose for a single course was 300 μg m^−2. From the dose level 170 μg m^−2, the intended dose intensity could not be delivered to most patients receiving > 2 courses owing to cumulative haematological toxicity. The dose level with the best dose intensity for multiple courses was 150 μg m^−2. The pharmacokinetics of Carzelesin and its metabolites (U-76,073; U-76,074) have been established in 31 patients during the first course of treatment using a HPLC method. […] The concentration of U-76,074 (active metabolite) extended above the lower limit of quantitation (1 ng ml^−1) for short periods of time and only at the higher dose levels. There was no relationship between neutropenia and the AUC of the prodrug Carzelesin, but the presence of detectable plasma levels of the active metabolite U-76,074 was usually associated with a substantial decrease in ANC values. © 1999 Cancer Research Campaign
Carzelesin (U-80,244, Figure 1A) is a cyclopropylpyrroloindole (CPI) prodrug analogue of CC-1065. […] CPI drugs are a class of compounds with unique DNA interactive properties. These agents fit into the minor groove region of DNA, and the CPI function in the molecule mediates a covalent binding to the N3 position of adenine in A-T rich regions, thus forming DNA adducts in a sequence selective fashion (Hurley et al, 1984; Reynolds et al, 1985). Three new CPIs have now been developed. […] Bizelesin differs from the classical CPI drugs in that it contains two chloromethyl functions, which are both converted (via intramolecular rearrangements) to the CPI alkyl- ating species that interact with DNA. Consequently, this agent is capable of forming DNA interstrand cross-links (Lee et al, 1991). […] Therefore, efforts were directed to modu- late the alkylation rate by the preparation of CPI prodrugs that would require chemical or enzymatic conversion. The activation of Carzelesin is a two-step reaction with hydrolysis of the phenyl- urethane substituent to form the intermediate compound U-76,073, followed by ring closure to form the active product U-76,074 (Figure 1B). […] This higher efficacy may be related to the pharmacologic features of the compound. […] Phase I study of Carzelesin (U-80,244) given (4-weekly) by intravenous bolus schedule A Awada1, CJA Punt2, MJ Piccart1, O Van Tellingen3, L Van Manen2, J Kerger1, Y Groot4, J Wanders4, J Verweij5 and DJTh Wagener2 1Institut Jules Bordet, Bd de Waterloo 125, 1000 Brussels, Belgium; 2University Hospital, Geert Grooteplein 8, Box 9101, 6500 HB Nijmegen, The Netherlands; 3The Netherlands Cancer Institute (Antoni van Leeuwenhoek Huis), Plesmanlaan 121, 1066 CX Amsterdam, The Netherlands; 4European Organization for Research and Treatment of Cancer - New Drug Development Office, PO Box 7057, Amsterdam, The Netherlands; 5Rotterdam Cancer Institute, Groene Hilledijk 301, 3075 EA Rotterdam, The Netherlands; on behalf of the EORTC Early Clinical Studies Group and EORTC NDDO Summary Carzelesin is a cyclopropylpyrroloindole analogue which acts as a DNA-sequence-specific alkylating agent. […]

[2] = test system: granulocytes (ANC), white blood cells (WBC), platelets; test: Pharmacokinetic-pharmacodynamic relationship of bone marrow toxicity (%decr vs AUC); type: in vivo; settings: plasma level of U-76,074 above 1 ng ml-1
Excerpt: Carzelesin (U-80,244, Figure 1A) is a cyclopropylpyrroloindole (CPI) prodrug analogue of CC-1065. […] CPI drugs are a class of compounds with unique DNA interactive properties. These agents fit into the minor groove region of DNA, and the CPI function in the molecule mediates a covalent binding to the N3 position of adenine in A-T rich regions, thus forming DNA adducts in a sequence selective fashion (Hurley et al, 1984; Reynolds et al, 1985). Three new CPIs have now been developed. […] Bizelesin differs from the classical CPI drugs in that it contains two chloromethyl functions, which are both converted (via intramolecular rearrangements) to the CPI alkyl- ating species that interact with DNA. Consequently, this agent is capable of forming DNA interstrand cross-links (Lee et al, 1991). […] Therefore, efforts were directed to modu- late the alkylation rate by the preparation of CPI prodrugs that would require chemical or enzymatic conversion. The activation of Carzelesin is a two-step reaction with hydrolysis of the phenyl- urethane substituent to form the intermediate compound U-76,073, followed by ring closure to form the active product U-76,074 (Figure 1B). […] This higher efficacy may be related to the pharmacologic features of the compound. […] Phase I study of Carzelesin (U-80,244) given (4-weekly) by intravenous bolus schedule A Awada1, CJA Punt2, MJ Piccart1, O Van Tellingen3, L Van Manen2, J Kerger1, Y Groot4, J Wanders4, J Verweij5 and DJTh Wagener2 1Institut Jules Bordet, Bd de Waterloo 125, 1000 Brussels, Belgium; 2University Hospital, Geert Grooteplein 8, Box 9101, 6500 HB Nijmegen, The Netherlands; 3The Netherlands Cancer Institute (Antoni van Leeuwenhoek Huis), Plesmanlaan 121, 1066 CX Amsterdam, The Netherlands; 4European Organization for Research and Treatment of Cancer - New Drug Development Office, PO Box 7057, Amsterdam, The Netherlands; 5Rotterdam Cancer Institute, Groene Hilledijk 301, 3075 EA Rotterdam, The Netherlands; on behalf of the EORTC Early Clinical Studies Group and EORTC NDDO Summary Carzelesin is a cyclopropylpyrroloindole analogue which acts as a DNA-sequence-specific alkylating agent. In this phase I study, Carzelesin was given as a 4-weekly 10 min IV infusion to 51 patients with advanced solid tumours. Patients received a median of two courses (range 1-5) at one of nine dose levels: […]. According to NCI-CTC criteria, non- haematological toxicities (grade 1/2) included fever, nausea and vomiting, mucositis and anorexia, none of which was clearly dose related. […] The concentration of U-76,074 (active metabolite) extended above the lower limit of quantitation (1 ng ml-1) for short periods of time and only at the higher dose levels. […]

COc1c(O)c2c(c3cc(C(=O)N4CCc5c4c(O)c(OC)c4[nH]c(C(=O)N6CC7CC78C6=CC(=O)c6[nH]cc(C)c68)cc54)[nH]c13)CCN2C(N)=O (centres unmarked) [CC-1065]
toxicity at sub-therapeutic doses (rabbits): delayed fatal toxicity | toxicity at sub-therapeutic doses (mice): delayed fatal toxicity

Cn1cc(NC(=O)c2cc(NC(=O)c3cc(NC(=O)c4ccc(N(CCCl)CCCl)cc4)cn3C)cn2C)cc1C(=O)NCCC(=N)N [Tallimustine]
dose-limiting toxicity (patients): brief neutropenia

CCN(CC)c1ccc2cc(C(=O)Nc3ccc4[nH]c(C(=O)N5C[C@@H](CCl)c6c5cc(O)c5[nH]cc(C)c65)cc4c3)oc2c1 [U-76,073]
mean concentration of metabolite [1]: 18 ng/mL

CCN(CC)c1ccc2cc(C(=O)Nc3ccc4[nH]c(C(=O)N5C[C@H]6C[C@@]67C5=CC(=O)c5[nH]cc(C)c57)cc4c3)oc2c1 [U-76,074]
plasma level of active metabolite, for short periods of time in most patients ([1]; Carzelesin dose of 130 or higher): exceeded 1 ng ml-1 | plasma concentration of active metabolite in the majority of patients ([1]; from the Carzelesin dose level 96): 1 to 2 ng/mL | mean concentration of metabolite [1]: 3 ng/mL | decrease in ANC values associated with detectable plasma levels [2]: greater than 60%
